Source: PubChem BioAssay (NCI)
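All cell lines were grown in 96-well plates and treated with compound for 48 hours. At the TGI there is no net growth.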

How the values were obtained:
Assay in all cases: inhibition of tumour cell growth, NCI panel, 48 h
786-0 renal = system: 786-0 renal
A498 renal = system: A498 renal
A549 NSCLC = system: A549 NSCLC
ACHN renal = system: ACHN renal
BT-549 breast = system: BT-549 breast
CAKI-1 renal = system: CAKI-1 renal
COLO 205 colon = system: COLO 205 colon
EKVX NSCLC = system: EKVX NSCLC
HCC-2998 colon = system: HCC-2998 colon
HCT-116 colon = system: HCT-116 colon
HCT-15 colon = system: HCT-15 colon
HOP-62 NSCLC = system: HOP-62 NSCLC
HOP-92 NSCLC = system: HOP-92 NSCLC
HS 578T breast = system: HS 578T breast
HT29 colon = system: HT29 colon
IGROV1 ovarian = system: IGROV1 ovarian
K-562 leukemia = system: K-562 leukemia
KM12 colon = system: KM12 colon
LOX IMVI melanoma = system: LOX IMVI melanoma
M14 melanoma = system: M14 melanoma
MALME-3M melanoma = system: MALME-3M melanoma
MCF7 breast = system: MCF7 breast
MDA-MB-231 breast = system: MDA-MB-231 breast
MDA-MB-435 = system: MDA-MB-435
MDA-N = system: MDA-N
MOLT-4 leukemia = system: MOLT-4 leukemia
NCI-H226 lung = system: NCI-H226 lung
NCI-H23 lung = system: NCI-H23 lung
NCI-H460 lung = system: NCI-H460 lung
NCI-H522 lung = system: NCI-H522 lung
NCI/ADR-RES ovarian = system: NCI/ADR-RES ovarian
OVCAR-4 ovarian = system: OVCAR-4 ovarian
OVCAR-5 ovarian = system: OVCAR-5 ovarian
OVCAR-8 ovarian = system: OVCAR-8 ovarian
PC-3 prostate = system: PC-3 prostate
RPMI-8226 leukemia = system: RPMI-8226 leukemia
RXF 393 renal = system: RXF 393 renal
SF-268 CNS = system: SF-268 CNS
SF-295 CNS = system: SF-295 CNS
SF-539 CNS = system: SF-539 CNS
SK-MEL-2 melanoma = system: SK-MEL-2 melanoma
SK-MEL-28 melanoma = system: SK-MEL-28 melanoma
SK-MEL-5 melanoma = system: SK-MEL-5 melanoma
SK-OV-3 ovarian = system: SK-OV-3 ovarian
SN12C renal = system: SN12C renal
SNB-19 CNS = system: SNB-19 CNS
SNB-75 CNS = system: SNB-75 CNS
SR leukemia = system: SR leukemia
SW-620 colon = system: SW-620 colon
T-47D breast = system: T-47D breast
TK-10 renal = system: TK-10 renal
U251 CNS = system: U251 CNS
UACC-257 melanoma = system: UACC-257 melanoma
UACC-62 melanoma = system: UACC-62 melanoma
UO-31 renal = system: UO-31 renal
CCRF-CEM leukemia = system: CCRF-CEM leukemia
DU-145 prostate = system: DU-145 prostate
HL-60(TB) leukemia = system: HL-60(TB) leukemia
OVCAR-3 ovarian = system: OVCAR-3 ovarian

For CC(=O)C(C(=O)c1ccc(C)cc1)[C@H]1OC(C)(C)O[C@H]1[C@H]1COC(C)(C)O1 (stereo partly drawn), which TGI (786-0 renal) is on record?
The TGI was 8.75 µM.

And the TGI (A498 renal)?
The TGI was 14.7 µM.

And the TGI (A549 NSCLC)?
The TGI was 22.9 µM.

And the TGI (ACHN renal)?
Its TGI is 13.2 µM.

And the TGI (BT-549 breast)?
The TGI was over 50 µM.

What about the TGI (CAKI-1 renal) of the same molecule?
The TGI was 12.8 µM.

What about the TGI (COLO 205 colon) of the same molecule?
Its TGI is 18.7 µM.

And the TGI (EKVX NSCLC)?
The TGI was 11.7 µM.

What about the TGI (HCC-2998 colon) of the same molecule?
Its TGI is 14.2 µM.

What about the TGI (HCT-116 colon) of the same molecule?
Its TGI is 6.81 µM.

And the TGI (HCT-15 colon)?
The TGI was 31.6 µM.

What about the TGI (HOP-62 NSCLC) of the same molecule?
Its TGI is 14.3 µM.

What about the TGI (HOP-92 NSCLC) of the same molecule?
Its TGI is 16.7 µM.

What about the TGI (HS 578T breast) of the same molecule?
Its TGI is over 50 µM.

What about the TGI (HT29 colon) of the same molecule?
The TGI was 9.35 µM.

And the TGI (IGROV1 ovarian)?
The TGI was 11 µM.

What about the TGI (K-562 leukemia) of the same molecule?
Its TGI is over 50 µM.

And the TGI (KM12 colon)?
The TGI was 18.9 µM.

What about the TGI (LOX IMVI melanoma) of the same molecule?
The TGI was 8.16 µM.

What about the TGI (M14 melanoma) of the same molecule?
The TGI was 14.4 µM.

And the TGI (MALME-3M melanoma)?
Its TGI is 18.4 µM.

And the TGI (MCF7 breast)?
Its TGI is 8.68 µM.

And the TGI (MDA-MB-231 breast)?
The TGI was 13.6 µM.

What about the TGI (MDA-MB-435) of the same molecule?
The TGI was 9.55 µM.

What about the TGI (MDA-N) of the same molecule?
The TGI was 6.63 µM.

And the TGI (MOLT-4 leukemia)?
The TGI was over 50 µM.

What about the TGI (NCI-H226 lung) of the same molecule?
Its TGI is 29.2 µM.

What about the TGI (NCI-H23 lung) of the same molecule?
The TGI was 10 µM.

And the TGI (NCI-H460 lung)?
The TGI was 17.2 µM.

What about the TGI (NCI-H522 lung) of the same molecule?
The TGI was 14.2 µM.

And the TGI (NCI/ADR-RES ovarian)?
The TGI was over 50 µM.

And the TGI (OVCAR-4 ovarian)?
The TGI was 9.37 µM.

What about the TGI (OVCAR-5 ovarian) of the same molecule?
The TGI was 18.3 µM.

What about the TGI (OVCAR-8 ovarian) of the same molecule?
The TGI was 12.6 µM.

What about the TGI (PC-3 prostate) of the same molecule?
Its TGI is 9.17 µM.

What about the TGI (RPMI-8226 leukemia) of the same molecule?
Its TGI is over 50 µM.

And the TGI (RXF 393 renal)?
The TGI was 9.01 µM.

And the TGI (SF-268 CNS)?
The TGI was 28.5 µM.

And the TGI (SF-295 CNS)?
The TGI was 16.9 µM.

And the TGI (SF-539 CNS)?
Its TGI is 6.3 µM.

What about the TGI (SK-MEL-2 melanoma) of the same molecule?
The TGI was 9.52 µM.

What about the TGI (SK-MEL-28 melanoma) of the same molecule?
Its TGI is 15.8 µM.

And the TGI (SK-MEL-5 melanoma)?
The TGI was 12.2 µM.

What about the TGI (SK-OV-3 ovarian) of the same molecule?
Its TGI is 18.4 µM.

And the TGI (SN12C renal)?
The TGI was 6.39 µM.

And the TGI (SNB-19 CNS)?
Its TGI is 17.3 µM.

What about the TGI (SNB-75 CNS) of the same molecule?
Its TGI is 10.8 µM.

And the TGI (SR leukemia)?
Its TGI is over 50 µM.

And the TGI (SW-620 colon)?
Its TGI is 10.8 µM.

What about the TGI (T-47D breast) of the same molecule?
The TGI was 18.9 µM.

What about the TGI (TK-10 renal) of the same molecule?
Its TGI is 14.5 µM.

What about the TGI (U251 CNS) of the same molecule?
The TGI was 7 µM.

What about the TGI (UACC-257 melanoma) of the same molecule?
The TGI was 11.9 µM.

And the TGI (UACC-62 melanoma)?
The TGI was 12.5 µM.

And the TGI (UO-31 renal)?
The TGI was 14 µM.

Which results are given for O=C1NC(Nc2ccccc2)=N/C1=C\c1c(Cl)cccc1Cl?
TGI (786-0 renal): 29.6 µM; TGI (A498 renal): > 100 µM; TGI (A549 NSCLC): 52.1 µM; TGI (ACHN renal): > 100 µM; TGI (BT-549 breast): > 100 µM; TGI (CAKI-1 renal): > 100 µM; TGI (CCRF-CEM leukemia): 54.1 µM; TGI (COLO 205 colon): > 100 µM; TGI (DU-145 prostate): 76.3 µM; TGI (EKVX NSCLC): 47.3 µM; TGI (HCC-2998 colon): 58.5 µM; TGI (HCT-116 colon): > 100 µM; TGI (HCT-15 colon): > 100 µM; TGI (HL-60(TB) leukemia): > 100 µM; TGI (HOP-62 NSCLC): > 100 µM; TGI (HOP-92 NSCLC): 39.9 µM; TGI (HS 578T breast): 95 µM; TGI (HT29 colon): > 100 µM; TGI (IGROV1 ovarian): 62.4 µM; TGI (K-562 leukemia): > 100 µM; TGI (KM12 colon): > 100 µM; TGI (LOX IMVI melanoma): > 100 µM; TGI (M14 melanoma): 83.5 µM; TGI (MALME-3M melanoma): 56.5 µM; TGI (MCF7 breast): 56 µM; TGI (MDA-MB-435): > 100 µM; TGI (MDA-N): 60.9 µM; TGI (MOLT-4 leukemia): 64.1 µM; TGI (NCI-H226 lung): 41.6 µM; TGI (NCI-H23 lung): > 100 µM; TGI (NCI-H460 lung): > 100 µM; TGI (NCI-H522 lung): > 100 µM; TGI (NCI/ADR-RES ovarian): > 100 µM; TGI (OVCAR-3 ovarian): > 100 µM; TGI (OVCAR-4 ovarian): 25.5 µM; TGI (OVCAR-5 ovarian): > 100 µM; TGI (OVCAR-8 ovarian): 65.1 µM; TGI (PC-3 prostate): 39.6 µM; TGI (RPMI-8226 leukemia): > 100 µM; TGI (RXF 393 renal): 45.3 µM; TGI (SF-268 CNS): > 100 µM; TGI (SF-295 CNS): > 100 µM; TGI (SF-539 CNS): 53.2 µM; TGI (SK-MEL-2 melanoma): 49 µM; TGI (SK-MEL-28 melanoma): > 100 µM; TGI (SK-MEL-5 melanoma): 37.6 µM; TGI (SK-OV-3 ovarian): 49.7 µM; TGI (SN12C renal): 46.6 µM; TGI (SNB-19 CNS): > 100 µM; TGI (SNB-75 CNS): 42.3 µM; TGI (SR leukemia): > 100 µM; TGI (SW-620 colon): > 100 µM; TGI (T-47D breast): > 100 µM; TGI (TK-10 renal): 47.2 µM; TGI (U251 CNS): 37.6 µM; TGI (UACC-257 melanoma): 78.1 µM; TGI (UACC-62 melanoma): > 100 µM; TGI (UO-31 renal): 18.4 µM
